# Experiments:
# [1] = tested on: rats injected intradermally in the left hind paw with Freund's complete adjuvant; assay: Preventative Adjuvant Edema; assay type: in vivo, Male Sprague Dawley rats; settings: Rattus norvegicus, po, 25 mg/kg p.o., edema volume day 3 vs day 0, read-out: Preventative Adjuvant Edema, percent inhibition
# Experimental: This test is a primary screen for anti-inflammatory drugs.
# Male Sprague Dawley rats (180-200 g) are used. The animals have free access to water but food is withdrawn 18 hours before testing.
# Drug Preparations and Administration:
# Freund's complete adjuvant is prepared by suspending 5 mg of killed and dried Mycobacterium butyricum (Difco) in 1 mL mineral oil. The test compounds are dissolved, or suspended in 0.5% Tween 80 in distilled water according to their solubility. For primary screening all drugs are administered by gastric gavage at the arbitrary dosage of 25 mg/kg, p.o. in a volume of 0.5 mL/100 g body weight to groups of 10 animals.
# The method is essentially that described by Wax et al, J. Pharmacol. Exp. Ther., 192, 166-171 (1975). Groups of rats are injected intradermally in the left hind paw with 0.1 mL of Freund's complete adjuvant. […] The injected hind paw volume is measured before the injection of adjuvant and 24 hrs. after the last drug administration (day 3) by means of a plethysmometer (Buxco Electronics Inc.). […]
# The mean edema volume (expressed as mL±SEM) is calculated for each group and the percentage protection conferred by the drug is calculated: [formula] where c is the mean edema volume for the vehicle-treated (0.5% Tween 80 in distilled water) controls and t is the means edema volume for the drug treated group.
# [2] = tested on: mice injected with a chemical irritant; assay: Phenylbenzoquinone-induced Writhing in Mice; assay type: in vivo, Male Swiss albino mice; settings: Mus musculus, po; for ED50: read-out: Phenylquinone Writhing in Mice, ED50
# Experimental: A further test used to determine the utility of the compounds of the present invention is designated: Drug Effects on Phenylbenzoquinone-induced Writhing in Mice.
# The objective of this test is to determine the ability of test drugs to inhibit the nociceptive (pain) response of mice injected with a chemical irritant. This test is a primary screen for both peripheral and centrally acting analgesic drugs.
# Male Swiss albino mice (15-25 g). The animals are fasted for 18 hours prior to use but have free access to water.
# Drug Preparation and Administration:
# Drugs are dissolved or suspended according to their solubility in 0.5% Tween 80 in distilled water. They are administered by gastric gavage in a volume of 5 mL/kg. For primary screening all drugs are administered at the arbitary dosage of 10 mg/kg, p.o. to a group of 10 mice.
# A modification of the method of Siegmund et al, Proc. Soc. Exp. Biol. Med., 95, 729-731 (1957) is used. Groups of 5 mice are dosed with the test compound or vehicle control. Sixty minutes later the animals are injected i.p. with 0.3 mL/20 g body weight of a 0.02% solution of phenylbenzoquinone (PBQ; 2-phenyl-1,4-benzoquinone) and placed in individual observation boxes. The number of writhing or abdominal squirming movements made by each mouse during the following 15 min. period is counted. The experiment is repeated with another group of 5 mice and the mean number of writhes per mouse for a group of 10 mice is calculated.
# Drug treated and vehicle-treated control groups are compared and the percentage protection conferred by the drug is calculated: [formula] where c=mean number of writhes in the control group where t=mean number of writhes in the test drug group
# [3] = tested on: rats with established adjuvant arthritis; assay: Curative Adjuvant Arthritis; assay type: in vivo, Male inbred Wistar Lewis rats; settings: for Injected Paw Edema / Non-Injected Paw Edema: change day 16 to day 25; for Body Weight Change: day 16 to day 25
# From the text: An additional test used to determine the utility of the compounds of the present invention is designated: Curative Adjuvant Arthritis. The objective of this test is to evaluate the ability of drugs to decrease edema in rats with established adjuvant arthritis in order to characterize further the anti-inflammatory activity of the compounds of the present invention. Species Male inbred Wistar Lewis rats with an initial body weight of 180-200 g were used. The animals had free access to food and water throughout the test. Drug Preparations and Administration Freund's Complete Adjuvant (FCA) was prepared by suspending 5 mg killed and dried Mycobacterium butyricum (Difco) in 1 mL mineral oil. The test compounds were dissolved, or suspended with a few drops of Tween 80, in distilled water according to their solubility. […] The volume of both hind paws were measured and body weight recorded at that time. On day 16 after FCA injection the volume of both hind paws were again measured. […] Mean body weight for each group was recorded. Drug or vehicle treatment was initiated on day 16. Animals were dosed daily from day 16 to day 25 (i.e. a total of […]). The volume of both hind paws and the body weight of the animal was recorded 2 hours after the last drug administration. Vehicle treated arthritic animals acted as a vehicle-treated control group and animals treated with etodolac (3 mg/kg po) acted as a positive control group. […] The ED50, or dose which causes such an effect in 50% animals, is calculated by probit analysis.
Structure (SMILES),inhibition at 25 mg/kg [1] [%],ED50 [2] [mg/kg],Injected Paw Edema ([3]; 0.3 mg/kg/day p.o.),Non-Injected Paw Edema ([3]; 0.3 mg/kg/day p.o.),Body Weight Change ([3]; 0.3 mg/kg/day p.o.),Injected Paw Edema ([3]; 1 mg/kg/day p.o.),Non-Injected Paw Edema ([3]; 1 mg/kg/day p.o.),Body Weight Change ([3]; 1 mg/kg/day p.o.),Injected Paw Edema ([3]; 3 mg/kg/day p.o.) [mL],Non-Injected Paw Edema ([3]; 3 mg/kg/day p.o.),Body Weight Change ([3]; 3 mg/kg/day p.o.),"inhibition at 10 mg/kg ([2]; 10 mg/kg p.o., read-out: Phenylquinone Writhing in Mice, percent inhibition) [%]",anti-inflammatory effect relative to etodolac ([3]; 1 mg/kg/day p.o.),"health as assessed by body weight gain ([3]; highest dose, 3 mg/kg/day)","potency relative to etodolac ([3]; more potent than etodolac, curative adjuvant arthritis)"
"CCc1cccc2c3c([nH]c12)C(CC)(CC(=O)O)OCC3 (centres unmarked) [etodolac, reference compound]",68,168,+1.12 mL,+1.86 mL,-3 g,+0.40 mL,+1.14 mL,-9 g,-0.28,+0.51 mL,+10 g,–,–,–,–
"CCC1(CC(=O)O)OCCc2c1[nH]c1cc(OC(F)(F)F)ccc21 (centres unmarked) [1-Ethyl-1,3,4,9-tetrahydro-7-(trifluoromethoxy)-pyrano[3,4-b]indole-1-acetic Acid]",88,24,+0.53 mL,+1.21 mL,+2 g,-0.18 mL,+0.35 mL,+2 g,-0.60,+0.11 mL,+20 g,47,intermediate between that produced by 1 and 3 mg/kg etodolac,appeared healthy,approximately 2 fold

# — patent US5128363A, “Trifluoromethoxy substituted 1,3,4,9-tetrahydropyrano-[3,4-b]indole-1-acetic acids” (American Home Products Corporation, priority 1990, dated 1992)
